# Active and inactive are the calls of the source.
# Tests used:
# [1] = molecular target: Type-1 angiotensin II receptor (Homo sapiens, UniProt P30556); test: agonist activity at AGTR1 – cell-based, uHTS hits, selectivity assay for APJ receptor agonist project, dose response (AID 488865); assay type: functional;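 also: beta-arrestin recruitment to AT1 measured by enzyme fragment complementation luminescence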
# [2] = molecular target: DNA damage-inducible transcript 3 protein (Mus musculus, UniProt P35639); assay type: functional, Cricetulus griseus
# [3] = molecular target: T1, Tyrosine-protein phosphatase non-receptor type 7 (Homo sapiens, UniProt P35236); test: SAR analysis of chemical inhibitors of HePTP using a Fluorescent assay - Set 2. [Related pubchem assays (depositor defined):AID1059, AID1077, AID1661, AID2085, AID521]; assay type: functional
# T1 sequence (P35236 whole entry): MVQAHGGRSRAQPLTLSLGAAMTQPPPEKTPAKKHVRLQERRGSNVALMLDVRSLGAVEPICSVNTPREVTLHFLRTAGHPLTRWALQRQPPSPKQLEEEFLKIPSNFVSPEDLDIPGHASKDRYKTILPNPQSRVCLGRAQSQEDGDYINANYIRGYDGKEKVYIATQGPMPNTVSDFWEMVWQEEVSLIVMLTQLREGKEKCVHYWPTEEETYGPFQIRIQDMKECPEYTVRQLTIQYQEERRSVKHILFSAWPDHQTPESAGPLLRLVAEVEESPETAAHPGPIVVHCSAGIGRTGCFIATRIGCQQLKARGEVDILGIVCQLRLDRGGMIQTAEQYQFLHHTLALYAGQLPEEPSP
# [4] = molecular target: Dual specificity protein phosphatase 3 (Homo sapiens, UniProt P51452); test: SAR VHR1 Fluorescent Assay for In Vitro dose response studies Set 2. [Related pubchem assays (depositor defined):AID1654, AID1661, AID1878]; assay type: functional
# [5] = molecular target: T2, G-protein coupled receptor 35 (Homo sapiens, UniProt Q9HC97); test: SAR analysis of Agonists of the GPR35 Receptor using an Image-Based Assay - Set 3. [Related pubchem assays (depositor defined):AID1961, AID1965]; assay type: functional
# [6] = molecular target: T2, G-protein coupled receptor 35; test: SAR analysis of Antagonists of the GPR35 Receptor using an Image-Based Assay - Set 4. [Related pubchem assays (depositor defined):[…]]; assay type: functional
# Cannabinoid receptor 1 [7] = molecular target: T3, Cannabinoid receptor 1 (Homo sapiens, UniProt P21554); test: SAR analysis of antagonists of the Cannabinoid Receptor 1 using an Image-Based Assay - Set 3. [Related pubchem assays (depositor defined):AID1961, AID1965]; assay type: functional
# [8] = molecular target: G-protein coupled receptor 55 (Homo sapiens, UniProt Q9Y2T6); test: SAR analysis of selective Agonists of GPR55 using an Image-Based Assay - Set 2. [Related pubchem assays (depositor defined):AID1961, AID1965]; assay type: functional
# Cannabinoid receptor 1 [9] = molecular target: T3, Cannabinoid receptor 1; test: SAR analysis of agonists of the Cannabinoid Receptor 1 using an Image-Based Assay - Set 3. [Related pubchem assays (depositor defined):AID1961, AID1965]; assay type: functional
# Cannabinoid receptor 2 [10] = molecular target: T4, Cannabinoid receptor 2 (Homo sapiens, UniProt P34972); test: SAR analysis of antagonists of the Cannabinoid Receptor 2 using an Image-Based Assay - Set 2. [Related pubchem assays (depositor defined):AID1961, AID1965]; assay type: functional
# Cannabinoid receptor 2 [11] = molecular target: T4, Cannabinoid receptor 2; test: SAR analysis of agonists of the Cannabinoid Receptor 2 using an Image-Based Assay - Set 2. [Related pubchem assays (depositor defined):AID1961, AID1965]; assay type: functional
# [12] = molecular target: T5, Ubiquitin-conjugating enzyme E2 N (Homo sapiens, UniProt P61088); assay type: functional;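 also: Dose-response confirmation in a TR-FRET assay detecting UBC13-driven polyubiquitin chain formation, inhibition measured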
# T5 sequence (P61088 whole entry): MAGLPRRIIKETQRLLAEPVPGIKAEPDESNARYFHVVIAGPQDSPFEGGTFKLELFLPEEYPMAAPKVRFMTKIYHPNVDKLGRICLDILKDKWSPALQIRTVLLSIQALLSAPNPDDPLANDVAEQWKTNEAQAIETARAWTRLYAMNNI
# [13] = molecular target: Dual specificity tyrosine-phosphorylation-regulated kinase 1A (Rattus norvegicus, UniProt Q63470); assay type: biochemical, Homo sapiens
# [14] = Luminescence Cell-Based Dose Retest to Confirm Inhibitors of Cancer Stem Cells. [Related pubchem assays (depositor defined):AID2717, AID2721]; assay type: functional, Homo sapiens; conditions: Homo sapiens
# Integrin alpha-4 = Integrin alpha-4 (Homo sapiens, UniProt P13612); test: allosteric modulators of alpha4 integrin VLA-4 – cell-based, LIBS antibody binding, flow cytometry, SAR follow-up (AID 488791); assay type: functional
# Hexokinase = Hexokinase (Trypanosoma brucei, UniProt Q38C41); test: Confirmation assay for inhibitors of Trypanosoma brucei hexokinase 1-Analogue-first series. [Related pubchem assays (depositor defined):AID1430, AID1632, AID2516, AID2560, AID2579, AID2600, AID449725, AID492951]; assay type: functional
# Chain of Hexokinase (Q38C41 whole entry): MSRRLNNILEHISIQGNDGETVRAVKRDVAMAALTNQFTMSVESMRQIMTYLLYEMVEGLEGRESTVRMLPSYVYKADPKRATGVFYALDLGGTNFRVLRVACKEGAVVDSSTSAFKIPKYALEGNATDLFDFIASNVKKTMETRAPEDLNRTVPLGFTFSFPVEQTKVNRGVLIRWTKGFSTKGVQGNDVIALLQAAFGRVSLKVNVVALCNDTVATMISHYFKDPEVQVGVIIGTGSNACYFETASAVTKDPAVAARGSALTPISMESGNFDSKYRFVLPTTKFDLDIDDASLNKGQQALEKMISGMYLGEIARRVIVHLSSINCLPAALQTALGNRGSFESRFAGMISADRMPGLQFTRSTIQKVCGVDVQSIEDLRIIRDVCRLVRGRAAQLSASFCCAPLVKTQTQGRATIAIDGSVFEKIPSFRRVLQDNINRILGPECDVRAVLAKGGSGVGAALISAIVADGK
# T4 sequence (P34972 whole entry): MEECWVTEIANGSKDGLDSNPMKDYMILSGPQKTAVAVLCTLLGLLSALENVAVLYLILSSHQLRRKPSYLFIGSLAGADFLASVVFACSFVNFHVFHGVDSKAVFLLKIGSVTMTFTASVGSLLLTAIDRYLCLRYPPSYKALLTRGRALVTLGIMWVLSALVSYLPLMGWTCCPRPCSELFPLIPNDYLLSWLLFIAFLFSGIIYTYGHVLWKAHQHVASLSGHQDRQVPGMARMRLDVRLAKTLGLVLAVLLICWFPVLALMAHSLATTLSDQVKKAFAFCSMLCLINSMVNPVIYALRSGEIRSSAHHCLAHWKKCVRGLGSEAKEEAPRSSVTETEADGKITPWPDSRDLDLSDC
# T2 sequence (Q9HC97 whole entry): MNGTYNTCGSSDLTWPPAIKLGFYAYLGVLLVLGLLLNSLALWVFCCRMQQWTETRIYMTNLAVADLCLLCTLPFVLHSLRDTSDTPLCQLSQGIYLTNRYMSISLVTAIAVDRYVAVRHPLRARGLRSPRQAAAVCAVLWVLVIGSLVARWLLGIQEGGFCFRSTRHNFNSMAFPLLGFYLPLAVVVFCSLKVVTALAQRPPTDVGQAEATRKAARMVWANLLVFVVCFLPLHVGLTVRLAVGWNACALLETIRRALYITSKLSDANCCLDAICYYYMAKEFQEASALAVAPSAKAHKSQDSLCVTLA
# T3 sequence (P21554 whole entry): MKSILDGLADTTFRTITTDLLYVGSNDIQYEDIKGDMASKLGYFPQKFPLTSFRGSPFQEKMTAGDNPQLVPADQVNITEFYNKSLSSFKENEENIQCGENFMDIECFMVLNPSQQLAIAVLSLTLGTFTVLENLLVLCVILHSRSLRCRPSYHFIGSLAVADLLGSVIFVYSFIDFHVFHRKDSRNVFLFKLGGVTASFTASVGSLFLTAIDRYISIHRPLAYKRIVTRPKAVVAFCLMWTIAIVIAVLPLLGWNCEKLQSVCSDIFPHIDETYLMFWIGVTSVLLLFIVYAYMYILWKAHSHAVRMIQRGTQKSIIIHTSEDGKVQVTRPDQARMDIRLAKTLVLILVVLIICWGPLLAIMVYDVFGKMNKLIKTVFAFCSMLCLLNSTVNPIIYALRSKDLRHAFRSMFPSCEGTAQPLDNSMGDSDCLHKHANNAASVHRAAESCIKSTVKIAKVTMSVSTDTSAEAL
# Chain of G-protein coupled receptor 55 (Q9Y2T6 whole entry): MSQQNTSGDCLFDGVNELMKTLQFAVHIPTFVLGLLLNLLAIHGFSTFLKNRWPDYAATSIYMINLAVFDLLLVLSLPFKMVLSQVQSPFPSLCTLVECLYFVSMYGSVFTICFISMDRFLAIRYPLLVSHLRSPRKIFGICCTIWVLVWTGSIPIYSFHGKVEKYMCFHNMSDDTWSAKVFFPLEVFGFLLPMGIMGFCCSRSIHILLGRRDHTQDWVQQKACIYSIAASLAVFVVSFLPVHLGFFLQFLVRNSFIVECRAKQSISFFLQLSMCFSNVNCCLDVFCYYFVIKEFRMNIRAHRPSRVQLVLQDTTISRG
# Chain of Dual specificity protein phosphatase 3 (P51452 whole entry): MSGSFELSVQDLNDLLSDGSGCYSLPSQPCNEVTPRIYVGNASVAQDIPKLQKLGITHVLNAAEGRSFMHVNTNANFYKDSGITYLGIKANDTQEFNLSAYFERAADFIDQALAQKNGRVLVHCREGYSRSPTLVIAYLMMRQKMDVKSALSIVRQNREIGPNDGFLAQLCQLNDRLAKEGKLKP
# Chain of DNA damage-inducible transcript 3 protein (P35639 whole entry): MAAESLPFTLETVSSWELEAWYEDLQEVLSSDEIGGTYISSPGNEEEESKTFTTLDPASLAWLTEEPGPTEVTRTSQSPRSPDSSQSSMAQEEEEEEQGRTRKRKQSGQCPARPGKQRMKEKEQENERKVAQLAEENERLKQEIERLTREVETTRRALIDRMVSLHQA
# Chain of Type-1 angiotensin II receptor (P30556 whole entry, the tested form may be a part): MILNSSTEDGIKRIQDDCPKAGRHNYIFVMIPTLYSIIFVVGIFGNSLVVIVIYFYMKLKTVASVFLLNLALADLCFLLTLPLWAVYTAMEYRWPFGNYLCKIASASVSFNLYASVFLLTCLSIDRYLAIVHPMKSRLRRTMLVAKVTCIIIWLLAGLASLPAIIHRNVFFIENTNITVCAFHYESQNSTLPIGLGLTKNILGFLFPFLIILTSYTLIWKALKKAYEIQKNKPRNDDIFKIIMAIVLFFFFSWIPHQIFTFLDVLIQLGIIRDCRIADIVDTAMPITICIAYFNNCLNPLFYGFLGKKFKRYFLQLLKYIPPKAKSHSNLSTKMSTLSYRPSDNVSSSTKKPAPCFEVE
# Chain of Integrin alpha-4 (P13612 whole entry): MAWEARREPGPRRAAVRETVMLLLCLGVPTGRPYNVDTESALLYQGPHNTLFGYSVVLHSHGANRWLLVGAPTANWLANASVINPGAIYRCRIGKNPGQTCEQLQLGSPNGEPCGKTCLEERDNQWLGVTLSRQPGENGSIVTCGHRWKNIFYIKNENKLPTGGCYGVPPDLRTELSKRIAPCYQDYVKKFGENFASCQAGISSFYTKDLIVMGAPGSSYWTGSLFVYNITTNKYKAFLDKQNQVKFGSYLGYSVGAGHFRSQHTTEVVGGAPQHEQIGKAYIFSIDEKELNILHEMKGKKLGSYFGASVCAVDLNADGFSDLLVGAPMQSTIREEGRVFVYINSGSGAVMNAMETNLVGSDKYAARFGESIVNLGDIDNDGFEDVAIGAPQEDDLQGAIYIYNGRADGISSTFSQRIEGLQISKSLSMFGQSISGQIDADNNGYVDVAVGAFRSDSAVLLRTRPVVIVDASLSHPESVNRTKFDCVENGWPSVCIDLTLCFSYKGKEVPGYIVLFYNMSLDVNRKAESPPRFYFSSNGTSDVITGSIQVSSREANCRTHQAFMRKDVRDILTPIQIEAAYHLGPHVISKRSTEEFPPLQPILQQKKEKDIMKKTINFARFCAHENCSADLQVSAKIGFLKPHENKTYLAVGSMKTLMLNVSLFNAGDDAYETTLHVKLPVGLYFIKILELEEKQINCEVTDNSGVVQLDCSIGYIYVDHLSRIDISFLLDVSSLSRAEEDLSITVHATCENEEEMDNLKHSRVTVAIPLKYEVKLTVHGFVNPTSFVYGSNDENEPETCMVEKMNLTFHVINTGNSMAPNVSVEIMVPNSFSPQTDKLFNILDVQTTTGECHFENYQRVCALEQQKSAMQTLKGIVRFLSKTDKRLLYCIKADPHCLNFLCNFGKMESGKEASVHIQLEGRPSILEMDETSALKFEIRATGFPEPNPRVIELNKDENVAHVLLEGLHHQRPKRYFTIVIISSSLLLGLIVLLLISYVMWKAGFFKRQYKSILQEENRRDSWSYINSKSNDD
smiles,measurement,setting,value
CCCCC1=CC2=CC(=O)C(C)(OC(=O)CC)C(=O)C2=CN1C1CCCCC1 (stereo unspecified),EC50,[1],> 100 µM (inactive)
CCOc1cccc(CN2CCN(c3cccc(C(F)(F)F)c3)CC2)c1O,Absolute IC50 (CHOP),[2],10 µM
COc1ccc(N2CCN(C(=O)Nc3ccc(S(N)(=O)=O)cc3)CC2)cc1,IC50,[3],51 µM (active)
same,IC50,[4],> 100 µM (inactive)
Cc1cccc(N2CCN(C(=O)c3cc(S(=O)(=O)N(C)C)ccc3Cl)CC2)c1C,EC50,[5],> 32 µM (inactive)
same,IC50,[6],> 32 µM (inactive)
same,IC50,Cannabinoid receptor 1 [7],15.6 µM (inactive)
same,EC50,[8],1.53 µM (active)
same,EC50,Cannabinoid receptor 1 [9],> 32 µM (inactive)
same,IC50,Cannabinoid receptor 2 [10],> 32 µM (inactive)
same,EC50,Cannabinoid receptor 2 [11],> 32 µM (inactive)
COc1cccc(-c2sc3ccccc3c2-c2ccc(OCCN3CCCC3)cc2)c1,IC50,[12],> 20 µM (inactive)
same,AC50,[13],49.2 µM (active)
same,AC50,[14],2.58 µM (active)
same,EC50,Integrin alpha-4,> 42.9 µM (inactive)
COc1ccc(C(=O)NC(C(=O)O)c2ccccc2)cc1 (stereo unspecified),IC50,Hexokinase,> 25 µM (inactive)
